# Test system: Adjuvant induced rheumatoid arthritis in rats
# Assay: In vivo anti-arthritic activity: Freund's complete adjuvant induced arthritis in rats
# Design: species or system Male Wistar rats
# Settings: reference group, dose not given
# Procedure: Male Wistar rats weighing […] were orally dosed with 100, 200 and 400 mg/kg of spent turmeric polysaccharide from day 1-day 28. The animals were given intra-dermal injection of Freund's complete adjuvant in the paw at a dosage level of 0.1 ml on days 7, 15, 21 and 28 of the study to induce arthritis. Oedema induced by the adjuvant was measured as increase in paw volumes on days 7, 15, 21 and 28. At the end of the study, animals were sacrificed and blood and tissue collected for analyzing the inflammatory parameters. The inflammatory parameters studied included, • a. Inflammation in the paws • b. Blood Biochemistry • c. Lipid Per oxidation • d. Reduced Glutathione in serum • e. Superoxide dismutase activity in serum • f. Levels of Acid and Alkaline phosphatase • g. TNF-α levels • h. IL6 levels
smiles,measurement,value
"CC(=O)Oc1ccccc1C(=O)O [ASA, Acetyl salicylic acid]",ACP (acid phosphatase),6.71 ± 0.06 IU/ml
same,ALP (alkaline phosphatase),104.18 ± 0.94 IU/ml
same,LIPID PEROXIDATION malondialdehyde formed,18.19 ± 0.10 nm/g tissue
same,Platelets,232 ± 2.65 10^9/L
same,Red blood corpuscles-RBCs,4.70 ± 0.04 10^6 Cells /μl
same,Reduced Glutathione,595.69 ± 0.64 μg/g tissue
same,SUPEROXIDE DISMUTASE,16.39 ± 0.01 g activity in tissue/min
same,White blood corpuscles-WBCs,7800.0 ± 85.63 Cells/μl

# Reference: patent publication US11298395B2, “Isolates from spent turmeric for the management of rheumatoid arthritis” (SAMI LABS LIMITED, priority 2017, dated 2022)
